Source: publication PMC12655637, “Design, Synthesis, and Mechanistic Study of Novel Ciprofloxacin/Thiazole Chalcone Hybrids as Potential Anticancer Agents” (Pharmaceuticals, 2025)

Assays:
[1] = system: tubulin polymerization; parameters: method as in PMID 40308265; settings: read-out: IC50 inhibition of tubulin polymerization; cited from earlier work
[2] = In vitro cytotoxicity against normal cell line WI 38; format: cell-based; settings: human, WI-38 normal cell line; ± SEM
Excerpt: Detailed results of cytotoxicity of compounds 4b and 4d against normal cell
Blank CC Sample No. 4b/WI38 sample no. 4d/WI38
conc. viability conc. viability

[3] = system: non-small-cell lung cancer A459; parameters: method as in PMID 27555286; settings: A459 ref 30; cited from earlier work
[4] = system: human melanoma LOX IMVI cancer cell line; parameters: method as in PMID 39406816; settings: LOX IMVI ref 33; cited from earlier work
[5] = system: renal cancer cell line UO-31; parameters: method as in PMID 29547830; settings: UO-31 ref 31; cited from earlier work
[6] = system: RPMI-8226; parameters: method as in PMID 39338317; settings: RPMI-8226 ref 14; cited from earlier work
[7] = system: OVCAR-3; parameters: method as in PMID 39338317; settings: OVCAR-3 ref 14; cited from earlier work
[8] = system: CCRF-CEM; parameters: method as in PMID 39338317; settings: CCRF-CEM ref 14; cited from earlier work
[9] = system: MDA-MB-468; parameters: method as in PMID 39338317; settings: MDA-MB-468 ref 14; cited from earlier work
[10] = system: leukemia subpanel; parameters: method as in PMID 24090914; settings: leukemia subpanel ref 26; cited from earlier work
[11] = system: MDAMB-231; parameters: method as in PMID 40308265; settings: MDAMB-231 ref 32; cited from earlier work
[12] = system: PC-3; parameters: method as in PMID 40308265; settings: PC-3 ref 32; cited from earlier work
[13] = system: MCF-7; parameters: method as in PMID 40308265; settings: MCF-7 ref 32; cited from earlier work
[14] = system: HCT-116; parameters: method as in PMID 40308265; settings: HCT-116 ref 32; cited from earlier work

For COc1ccc(/C=C\c2cc(OC)c(OC)c(OC)c2)cc1O [CA-4], the IC50 [1] is given as 8.33 µM.
For COc1cccc2c1C(=O)c1c(O)c3c(c(O)c1C2=O)C[C@@](O)(C(=O)CO)C[C@@H]3O[C@H]1C[C@H](N)[C@H](O)[C@H](C)O1 [Doxorubicin, doxorubicin, reference compound], the IC50 [2] was 19.8 ± 0.68 µM.
For O=C(CN1CCN(c2cc3c(cc2F)c(=O)c(C(=O)O)cn3C2CC2)CC1)Nc1ccc(Cl)cc1 [III], the IC50 [3] is listed as 14.8 µM.
For O=C(O)c1cn(C2CC2)c2cc(N3CCN(C(=O)CCCN4C(=O)S/C(=C\c5ccc(F)cc5)C4=O)CC3)c(F)cc2c1=O [IIX], the IC50 [4] is given as 25.4 µM.
For O=C(CN1CCN(c2cc3c(cc2F)c(=O)c(C(=O)O)cn3C2CC2)CC1)N/N=C/c1ccccc1O [IV], the IC50 [5] is given as 0.75 µM.
For O=C(/C=C/c1ccc(Cl)cc1)c1c[nH]c(=S)s1 [VII], the IC50 [6] is listed as 2.4 µM, the IC50 [7] is listed as 2.82 µM and the IC50 [8] is listed as 2.88 µM. The IC50 [9] was 2.51 µM.
In the case of COc1cc(/C=C/C(=O)c2ccc(NC(=O)N3CCN(c4cc5c(cc4F)c(=O)c(C(=O)O)cn5C4CC4)CC3)cc2)cc(OC)c1OC [VI], the Selectivity ratio [10] is listed as 6.71.
In the case of COc1cc(/C=C/C(=O)c2sc(SCC(=O)Nc3nc(-c4ccccc4)cs3)nc2C)cc(OC)c1OC [V], the IC50 [11] is given as 6 µM, the IC50 [12] is given as 7 µM and the IC50 [13] is given as 4 µM. The IC50 [14] was 8 µM and the IC50 [1] was 2.69 µM.
